Target: T1, recombinant human cGAS (aa147-522) (Homo sapiens, UniProt Q8N884)
T1 construct: recombinant human cGAS (aa147-522); His6-SUMO (cleaved yes); made in house; host or cells: E. coli BL21/pLys
Assay: In vitro inhibition assay of cGAS activity (ATP consumption, KinaseGlo Max)
Assay type: biochemical
Conditions: Table 2, read-out: cGAS Inhibition Results IC50
Procedure, shortened: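 IC50 came from plotting % ATP consumption against log compound concentration, with leftover ATP detected by KinaseGlo Max chemiluminescence. Reactions ran 20 min at 37 °C with 1.5 μg/mL human cGAS (aa147-522), 6.6 μM ATP, 0.1 mM GTP and 0.01 mg/mL DNA at pH 7.5.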

T1 sequence (Q8N884 147-522): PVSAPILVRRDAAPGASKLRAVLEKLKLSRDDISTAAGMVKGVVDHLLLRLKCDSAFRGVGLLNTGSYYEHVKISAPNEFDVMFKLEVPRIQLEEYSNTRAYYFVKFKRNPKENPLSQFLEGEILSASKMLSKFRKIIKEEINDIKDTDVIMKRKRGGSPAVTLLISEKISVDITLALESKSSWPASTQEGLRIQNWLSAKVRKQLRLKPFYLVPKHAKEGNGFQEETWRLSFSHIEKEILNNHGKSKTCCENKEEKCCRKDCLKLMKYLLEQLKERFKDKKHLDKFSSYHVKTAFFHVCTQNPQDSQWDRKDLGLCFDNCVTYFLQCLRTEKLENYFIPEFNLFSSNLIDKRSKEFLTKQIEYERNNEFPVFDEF

IC50	Structure (SMILES)
2000 to 30000 nM	CS(=O)(=O)Nc1cccc(-c2cc(-n3ccnc3)c3ccc(Cl)cc3n2)c1 [I-10, N-(3-(7-chloro-4-(1H-imidazol-1-yl)quinolin-2-yl)phenyl)methanesulfonamide]
< 2000 nM	O=C(O)[C@@H]1[C@@H](O)CCN1c1cc(-n2ccnc2)c2ccc(Cl)c(Cl)c2n1 [I-345]
> 30000 nM	Brc1ccc2c(-n3ccnc3)cc(-c3ccncc3)nc2c1 [I-383]
< 2000 nM	O=C(O)c1cccc(-c2cc(-n3ccnc3)c3ccc(Cl)cc3n2)c1 [I-6, 3-(7-Chloro-4-(1H-imidazol-1-yl)quinolin-2-yl)benzoic acid]
> 30000 nM	Clc1ccc2c(-c3ccncc3)cc(-c3ccccc3)nc2c1 [I-70]
2000 to 30000 nM	NS(=O)(=O)O[C@H]1CCCN(c2cc(-n3ccnc3)c3ccc(Cl)c(Cl)c3n2)C1 [I-119, (S)-1-(7,8-dichloro-4-(1H-imidazol-1-yl)quinolin-2-yl)piperidin-3-yl sulfamate]
2000 to 30000 nM	CC(C)[C@@H](CC(=O)O)Nc1cc(-n2ccnc2)c2ccc(Cl)c(Cl)c2n1 [I-187]
< 2000 nM	O=C(O)[C@@H]1COCCN1c1cc(-c2cn[nH]c2)c2ccc(Cl)c(Cl)c2n1 [I-93]
< 2000 nM	CN(CCCO[PH](=O)OCCC#N)c1cc(-c2cn[nH]c2)c2ccc(Cl)c(Cl)c2n1 (stereo not shown) [I-257]
< 2000 nM	CN(CCC(=O)O)c1cc(-c2cn[nH]c2)c2ccc(Cl)c(Cl)c2n1 [I-184]
> 30000 nM	O=C(O)c1cc(-c2cc(Cl)c3ccc(Cl)c(Cl)c3n2)ccc1O [I-75, 2-Hydroxy-5-(4,7,8-trichloroquinolin-2-yl)benzoic acid]
< 2000 nM	O=P(O)(O)CCCNc1cc(-c2cn[nH]c2)c2ccc(Cl)c(Cl)c2n1 [I-397, (3-((7,8-dichloro-4-(1H-pyrazol-4-yl)quinolin-2-yl)amino)propyl)phosphonic acid]
2000 to 30000 nM	OC[C@@H](Nc1cc(-n2ccnc2)c2ccc(Cl)c(Cl)c2n1)c1ccccc1 [I-246]
> 30000 nM	O=C1CC[C@@H](CO)N1c1cc(-n2ccnc2)c2ccc(Cl)c(Cl)c2n1 [I-376]
> 30000 nM	Cc1cc(N2CCNC(=O)CC2)c2ccc(Cl)c(Cl)c2n1 [I-310]
2000 to 30000 nM	Clc1ccc2c(-n3ccnc3)cc(Nc3ccccc3)nc2c1 [I-355]
2000 to 30000 nM	O=C(O)[C@@H]1CN(c2cc(-n3ccnc3)c3ccc(Cl)cc3n2)CC[C@@H]1O [I-136]
2000 to 30000 nM	NC(=O)NC1CCCN(c2cc(-n3ccnc3)c3ccc(Cl)cc3n2)C1 (stereo not shown) [I-104, 1-(1-(7-chloro-4-(1H-imidazol-1-yl)quinolin-2-yl)piperidin-3-yl)urea]
< 2000 nM	O=C(O)CCc1cc(-c2cn[nH]c2)c2ccc(Cl)c(Cl)c2n1 [I-270, 3-(7,8-dichloro-4-(1H-pyrazol-4-yl)quinolin-2-yl)propanoic acid]

IC50	Structure (SMILES)
2000 to 30000 nM	O=C(O)[C@H]1CCCN1c1cc(-c2cn[nH]c2)nc2c(Cl)c(Cl)ccc12 [I-292]
< 2000 nM	O=C(C[C@@H]1CCCN1c1cc(-c2cn[nH]c2)c2ccc(Cl)c(Cl)c2n1)N1CCC[C@H]1CO [I-454]
< 2000 nM	CC(C)(C)O[C@@H]1C[C@@H](C(=O)O)N(c2cc(-c3cn[nH]c3)c3ccc(Cl)c(Cl)c3n2)C1 [I-437]
> 30000 nM	Cc1cc(NCC(N)=O)c2ccc(Cl)c(Cl)c2n1 [I-313]
< 2000 nM	O=C(O)CNc1cc(-c2cn[nH]c2)nc2c(Cl)cc(Cl)cc12 [I-288]
2000 to 30000 nM	O=C(O)[C@@H]1C[C@@H](Oc2ccccc2)CN1c1cc(-c2cn[nH]c2)c2ccc(Cl)c(Cl)c2n1 [I-361]
> 30000 nM	Brc1ccc2c(-n3ccnn3)ccnc2c1 [I-420]
< 2000 nM	CS(=O)(=O)N(CCCc1cc(-c2cn[nH]c2)c2ccc(Cl)c(Cl)c2n1)CC(=O)O [I-337, N-(3-(7,8-dichloro-4-(1H-pyrazol-4-yl)quinolin-2-yl)propyl)-N-(methylsulfonyl) glycine]
< 2000 nM	O=C(O)CNC(=O)C[C@@H]1CCCN1c1cc(-n2ccnc2)c2ccc(Cl)c(Cl)c2n1 [I-156, (S)-(2-(1-(7,8-dichloro-4-(1H-imidazol-1-yl)quinolin-2-yl)pyrrolidin-2-yl)acetyl)glycine]
2000 to 30000 nM	CN(CCNS(=O)(=O)c1ncc[nH]1)c1cc(-n2ccnc2)c2ccc(Cl)cc2n1 [I-230]
> 30000 nM	Cc1cc(N2CCCNC(=O)C2)c2ccc(Cl)c(Cl)c2n1 [I-305]
2000 to 30000 nM	CC(CNc1cc(-n2ccnc2)c2ccc(Cl)c(Cl)c2n1)S(N)(=O)=O (stereo not shown) [I-210]
2000 to 30000 nM	Oc1c(Br)ccc2c(-n3ccnc3)cc(-c3ccccc3)nc12 [I-53, 7-bromo-4-(1H-imidazol-1-yl)-2-phenylquinolin-8-ol]
> 30000 nM	O=C(O)c1cc2c(c(-c3cc(-n4ccnc4)c4ccc(Cl)cc4n3)c1)OC(F)(F)O2 [I-38]
> 30000 nM	COc1ccccc1-c1cc(-n2ccnc2)c2ccc(Br)cc2n1 [I-381]
> 30000 nM	CN(CCNS(=O)(=O)c1ccc(C(F)(F)F)cc1)c1cc(-n2ccnc2)c2ccc(Cl)cc2n1 [I-394]
2000 to 30000 nM	Clc1ccc2c(-n3ccnc3)cc(NCCN3CCOCC3)nc2c1Cl [I-215]
< 2000 nM	CN(CCO)c1cc(-n2ccnc2)c2ccc(Cl)c(Cl)c2n1 [I-238]
2000 to 30000 nM	CC(CN1CCOCC1)Nc1cc(-c2cn[nH]c2)c2ccc(Cl)c(Cl)c2n1 (stereo not shown) [I-211]

Same assay, conditions: Table 3, read-out: cGAS Inhibition Results IC50

IC50	Structure (SMILES)
< 2000 nM	C[C@@H](NC(=O)CCN(C)c1cc(-n2ccnc2)c2ccc(Cl)c(Cl)c2n1)C(=O)O [I-563]
< 2000 nM	CO[C@H]1CCN(c2cc(-n3ccnc3)c3ccc(Cl)c(Cl)c3n2)[C@@H]1C(=O)O [I-560]
< 2000 nM	CN(CCS(=O)(=O)N1CCCC(C(=O)O)C1)c1cc(-n2ccnc2)c2ccc(Cl)c(Cl)c2n1 (stereo not shown) [I-631]
< 2000 nM	O=C(O)[C@@H]1CC[C@@H](CCO)N1c1cc(-n2ccnc2)c2ccc(Cl)c(Cl)c2n1 [I-783, (2S,5S)-1-(7,8-dichloro-4-(1H-imidazol-1-yl)quinolin-2-yl)-5-(2-hydroxyethyl)pyrrolidine-2-carboxylic acid]
2000 to 30000 nM	COC(=O)C1CCCN(C(=O)C[C@@H]2CCCN2c2cc(-n3ccnc3)c3ccc(Cl)c(Cl)c3n2)C1 (stereo partly shown) [I-535]
< 2000 nM	O=C(O)[C@@H]1C[C@@H](O)CN1c1cc(-n2ccnc2)c2ccc(Cl)c(Cl)c2n1 [I-514]
< 2000 nM	OC[C@@H]1CCN1c1cc(-n2ccnc2)c2ccc(Cl)c(Cl)c2n1 [I-659]
2000 to 30000 nM	COC(=O)[C@H]1[C@H](O)CCN1c1cc(-n2ccnc2)c2ccc(Cl)c(Cl)c2n1 [I-497]
< 2000 nM	COC(=O)C[C@@H]1CCCN1c1cc(-n2ccnc2)c2ccc(Cl)c(Cl)c2c1 [I-572, methyl (S)-2-(1-(7,8-dichloro-4-(1H-imidazol-1-yl)naphthalen-2-yl)pyrrolidin-2-yl)acetate]
< 2000 nM	O=C1NC(=O)[C@H](CS(=O)(=O)NC[C@@H]2CCCN2c2cc(-n3ccnc3)c3ccc(Cl)c(Cl)c3n2)N1 [I-637]
2000 to 30000 nM	CN(CC(=O)NCCC(N)=O)c1cc(-n2ccnc2)c2ccc(Cl)c(Cl)c2n1 [I-568]
< 2000 nM	NC(=O)[C@@H]1[C@@H](O)CCN1c1cc(-n2ccnc2)c2ccc(Cl)c(Cl)c2n1 [I-557]
< 2000 nM	OC1CC2CCC(C1)N2c1cc(-n2ccnc2)c2ccc(Cl)c(Cl)c2n1 (stereo not shown) [I-490]
2000 to 30000 nM	COC(=O)CCO[C@@H]1CCN(c2cc(-n3ccnc3)c3ccc(Cl)c(Cl)c3n2)C1 [I-769]
< 2000 nM	CN(CCNC(=O)C1CCCC1C(=O)O)c1cc(-n2ccnc2)c2ccc(Cl)c(Cl)c2n1 (stereo not shown) [I-622]
< 2000 nM	CN(CCS(=O)(=O)NC1CCC(C(=O)O)C1)c1cc(-n2ccnc2)c2ccc(Cl)c(Cl)c2n1 (stereo not shown) [I-625]
< 2000 nM	O=C(O)CCOCC(COCCC(=O)O)Nc1cc(-n2ccnc2)c2ccc(Cl)c(Cl)c2n1 [I-874]
< 2000 nM	O=C(O)c1cccc(S(=O)(=O)N[C@@H]2C[C@@H](C(=O)O)N(c3cc(-n4ccnc4)c4ccc(Cl)c(Cl)c4n3)C2)c1 [I-510]
< 2000 nM	CN(CCN(CCC(=O)O)S(C)(=O)=O)c1cc(-n2ccnc2)c2ccc(Cl)c(Cl)c2n1 [I-634, 3-(N-(2-((7,8-dichloro-4-(1H-imidazol-1-yl)quinolin-2-yl)(methyl)amino)ethyl)methylsulfonamido) propanoic acid]
2000 to 30000 nM	O=C(O)CCOC[C@H]1CCCCN1c1cc(-n2ccnc2)c2ccc(Cl)c(Cl)c2n1 [I-790]
< 2000 nM	O=C(O)CO[C@@H]1CCN(c2cc(-n3ccnc3)c3ccc(Cl)c(Cl)c3n2)C1 [I-766]
2000 to 30000 nM	FC(F)(F)[C@@H]1CCCN1c1cc(-n2ccnc2)c2ccc(Cl)c(Cl)c2n1 [I-496]
2000 to 30000 nM	CC(C)N(CCCOc1ccccc1C(=O)O)c1cc(-n2ccnc2)c2ccc(Cl)c(Cl)c2n1 [I-852]
< 2000 nM	C[C@H](NC(=O)CCN(C)c1cc(-n2ccnc2)c2ccc(Cl)c(Cl)c2n1)C(=O)O [I-565]
< 2000 nM	O=C(O)C1CCN(C(=O)C[C@@H]2CCCN2c2cc(-n3ccnc3)c3ccc(Cl)c(Cl)c3n2)C1 (stereo partly shown) [I-524]
2000 to 30000 nM	O=C(C[C@@H]1CCCN1c1cc(-n2ccnc2)c2ccc(Cl)c(Cl)c2n1)NCCC(O)(C(F)(F)F)C(F)(F)F [I-543]
2000 to 30000 nM	COC(=O)CCN(CCC(=O)OC)C[C@@H]1CCCN1c1cc(-n2ccnc2)c2ccc(Cl)c(Cl)c2n1 [I-757, dimethyl 3,3′-(((1-(7,8-dichloro-4-(1H-imidazol-1-yl)quinolin-2-yl)pyrrolidin-2-yl)methyl)azanediyl)(S)-dipropionate]

Structure (SMILES)	IC50
CC(=O)O[C@H]1CCN(c2cc(-n3ccnc3)c3ccc(Cl)c(Cl)c3n2)[C@@H]1C(=O)O [I-643, (2S,3S)-3-acetoxy-1-(7,8-dichloro-4-(1H-imidazol-1-yl)quinolin-2-yl)pyrrolidine-2-carboxylic acid]	< 2000 nM

Same assay, conditions: cGAS Inhibition Results IC50, Table 2

Structure (SMILES)	IC50
CCOP(=O)(O)CNc1cc(-c2cn[nH]c2)c2ccc(Cl)c(Cl)c2n1 [I-253, Ethyl hydrogen (7,8-dichloro-4-(1H-pyrazol-4-yl)quinolin-2-ylamino)methylphosphonate]	< 2000 nM

Reference: patent publication US11873291B2, “Quinoline cGAS antagonist compounds” (ImmuneSensor Therapeutics, Inc., priority 2020, dated 2024)
